Measured values as given in patent US10214512B2, “Factor XIA inhibitors” (MERCK SHARP & DOHME CORP., priority 2015, dated 2019).

Key:
[1] = molecular target: purified human Factor XIa (Homo sapiens (Human), UniProt P03951); experiment: Factor XIa Assay; assay type: biochemical; conditions: purified human Factor XIa 40 pM; substrate Z-Gly-Pro-Arg-AFC 100 μM; 50 mM HEPES pH 7.4; read-out: Human FXIa Ki
Procedure, shortened: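 Purified human FXIa at 40 pM final with fluorogenic Z-Gly-Pro-Arg-AFC at 100 μM, in 50 mM HEPES pH 7.4, 150 mM NaCl, 5 mM CaCl2, 0.1% PEG 8000, at rt or 37° C. Initial velocities measured after enzyme–inhibitor equilibration; Ki derived from Vo/Vi versus [I] assuming competitive inhibition.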

[2] = molecular target: purified Human plasma Kallikrein (Homo sapiens (Human), UniProt P03952); experiment: Kallikrein Assay; assay type: biochemical; conditions: purified Human plasma Kallikrein 0.5 nM; substrate Acetyl-K-P-R-AFC; 50 mM HEPES pH 7.4; Ki from IC50 by Cheng Prusoff
purified Human plasma Kallikrein, sequence (P03952 391-638): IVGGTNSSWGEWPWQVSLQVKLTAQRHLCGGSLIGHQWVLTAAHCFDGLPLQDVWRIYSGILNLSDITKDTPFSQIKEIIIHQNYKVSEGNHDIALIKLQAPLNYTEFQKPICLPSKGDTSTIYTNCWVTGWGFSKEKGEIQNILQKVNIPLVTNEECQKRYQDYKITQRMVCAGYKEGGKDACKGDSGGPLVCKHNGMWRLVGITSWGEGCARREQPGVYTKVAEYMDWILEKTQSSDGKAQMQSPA
purified Human plasma Kallikrein, sequence (P03952 20-390 partner): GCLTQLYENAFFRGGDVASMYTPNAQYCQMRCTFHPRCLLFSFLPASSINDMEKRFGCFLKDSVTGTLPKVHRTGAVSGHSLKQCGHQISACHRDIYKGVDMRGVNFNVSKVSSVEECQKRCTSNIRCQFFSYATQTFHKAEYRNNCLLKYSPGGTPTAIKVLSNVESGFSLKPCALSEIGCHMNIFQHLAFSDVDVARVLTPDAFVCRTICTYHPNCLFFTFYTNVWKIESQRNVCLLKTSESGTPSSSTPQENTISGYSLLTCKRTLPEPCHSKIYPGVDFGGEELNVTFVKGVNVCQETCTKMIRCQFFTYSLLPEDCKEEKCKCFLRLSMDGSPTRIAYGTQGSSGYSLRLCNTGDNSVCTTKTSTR
Procedure, shortened: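 Purified human plasma kallikrein (0.5 nM) with fluorogenic Ac-K-P-R-AFC ([…]) in 50 mM HEPES pH 7.4, 150 mM NaCl, 5 mM CaCl2, 0.1% PEG 8000, at rt or 37 °C. Substrate hydrolysis rate read with and without inhibitor; IC50 from four-parameter logistic fit, converted to Ki by Cheng–Prusoff.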

purified human Factor XIa, sequence (P03951 388-625): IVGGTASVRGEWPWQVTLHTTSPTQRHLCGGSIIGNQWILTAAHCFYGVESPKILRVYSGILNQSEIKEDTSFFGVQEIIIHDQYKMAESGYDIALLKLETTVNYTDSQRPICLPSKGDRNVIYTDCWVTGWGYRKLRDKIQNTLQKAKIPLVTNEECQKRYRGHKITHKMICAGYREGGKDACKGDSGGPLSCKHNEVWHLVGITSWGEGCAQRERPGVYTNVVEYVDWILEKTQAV
purified human Factor XIa, sequence (P03951 19-387 partner): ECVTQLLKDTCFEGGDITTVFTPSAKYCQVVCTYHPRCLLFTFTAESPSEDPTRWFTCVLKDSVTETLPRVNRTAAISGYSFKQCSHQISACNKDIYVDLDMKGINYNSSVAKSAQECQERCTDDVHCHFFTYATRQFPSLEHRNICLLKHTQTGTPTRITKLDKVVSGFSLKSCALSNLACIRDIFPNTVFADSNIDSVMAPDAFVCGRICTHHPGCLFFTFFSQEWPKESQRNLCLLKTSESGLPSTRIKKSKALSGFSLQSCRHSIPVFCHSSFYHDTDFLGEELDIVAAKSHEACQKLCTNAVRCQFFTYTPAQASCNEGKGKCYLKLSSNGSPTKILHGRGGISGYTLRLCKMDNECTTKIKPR

Compound	Ki [1] [nM]	Ki [2] [nM]
COC(=O)Nc1ccc2c(c1)NC(=O)[C@@H](C)CCC[C@@H](c1ccc(-c3c(F)cccc3F)c[n+]1[O-])c1nc-2c(C)[nH]1 (single isomer, unassigned) [Example 143-c]	1.4	5.92
COC(=O)Nc1ccc2c(c1)NC(=O)CCCCC(c1ccc(-c3c(F)ccc(Cl)c3F)c[n+]1[O-])c1nc-2c[nH]1 (single isomer, unassigned) [Example 96-a, (Z)-5-(3-chloro-2,6-difluorophenyl)-2-(2^4-((methoxycarbonyl)amino)-4-oxo-1^1H-3-aza-1(4,2)-imidazola-2(1,2)-benzenacyclononaphane-9-yl)pyridine 1-oxide]	0.53	0.6
O=C1CCCCC(c2ccc(-c3cc(Cl)ccc3-n3cnnn3)c[n+]2[O-])c2nc(c[nH]2)-c2cc(F)ccc2N1 (single isomer, unassigned) [Example 11-a, (Z)-5-(5-Chloro-2-(1H-tetrazol-1-yl)phenyl)-2-(2^5-fluoro-4-oxo-1^1h-3-aza-1(4,2)-imidazola-2(1,2)-benzenacyclononaphane-9-yl)pyridine 1-oxide]	0.22	2.12
COC(=O)Nc1ccc2c(c1)NC(=O)CCCCC(c1ccc(-c3cc(Cl)ccc3-n3cnnn3)cn1)c1cc-2ncc1F (stereo not shown) [Example 57, methyl (9-(5-(5-chloro-2-(1h-tetrazol-1-yl)phenyl)pyridin-2-yl)-1^5-fluoro-4-oxo-3-aza-1(2,4)-pyridina-2(1,2)-benzenacyclononaphane-2^4-yl)carbamate]	0.52	12.1
COC(=O)Nc1ccc2c(c1)NC(=O)CCCCC(c1ccc(-c3c(OC(F)F)ccc(Cl)c3F)c[n+]1[O-])c1nc-2c[nH]1 (single isomer, unassigned) [Example 100-a, (Z)-5-(3-Chloro-6-(difluoromethoxy)-2-fluorophenyl)-2-(2^4-((methoxycarbonyl)amino)-4-oxo-1^1H-3-aza-1(4,2)-imidazola-2(1,2) -benzenacyclononaphane-9-yl)pyridine 1-oxide]	0.33	1.02
COC(=O)Nc1ccc2c(c1)NC(=O)CCCCC(c1ccc(-c3cc(Cl)ccc3-n3cnnn3)c[n+]1[O-])c1cc-2[n+]([O-])cc1F (single isomer, unassigned) [Example 81-a, 9-(5-(5-chloro-2-(1h-tetrazol-1-yl)phenyl)-1-oxidopyridin-2-yl)-1^5-fluoro-2^4-((methoxycarbonyl)amino)-4-oxo-3-aza-1(2,4)-pyridin-1-iuma-2(1,2)-benzenacyclononaphane 1^1-oxide]	0.14	0.46
CCc1[nH]c2nc1-c1ccc(NC(=O)OC)cc1NC(=O)C(C)CCC[C@@H]2c1ccc(-c2c(F)cccc2F)c[n+]1[O-] (single isomer, unassigned) [Example 144]	0.46	1.35
O=C1CCCC[C@H](c2ccc(-c3cc(Cl)ccc3-n3cnnn3)cn2)c2cccc(c2)-c2cc(F)ccc2N1 [Example 1-a, (S)-9-(5-(5-Chloro-2-(1H-tetrazol-1-yl)phenyl)pyridin-2-yl)-2^5-fluoro-3-aza-1(1,3),2(1,2)-dibenzenacyclononaphan-4-one]	22.3	205
CCOC(=O)Nc1ccc2c(c1)NC(=O)CCCC[C@H](c1ccc(-c3c(F)ccc(Cl)c3F)c[n+]1[O-])c1cccc-2c1 [Example 44, (s)-5-(3-chloro-2,6-difluorophenyl)-2-(2^4-((ethoxycarbonyl)amino)-4-oxo-3-aza-1(1,3),2(1,2)-dinenzenacyclononaphane-9-yl)pyridine 1-oxide]	1.23	2.7

More lines, in order of falling Ki [1], values ahead:

Ki [1] [nM]	Ki [2] [nM]	Compound
52.2	2920	O=C(C1CCCCC(c2ccc(-c3cc(Cl)ccc3-n3cnnn3)c[n+]2[O-])c2cccc(c2)-c2cc(F)ccc2N1)N1CCCC1 (single isomer, unassigned) [Example 79-c, 5-(5-Chloro-2-(1H-tetrazol-1-yl)phenyl)-2-(2^5-fluoro-4-(pyrrolidine-1-carbonyl)-3-aza-1(1,3),2(1,2)-dibenzenacyclononaphane-9-yl)pyridine 1-oxide]
2.7	8.42	COC(=O)Nc1ccc2c(c1)NC(=O)CCCC[C@H](c1ccc(-c3c(F)ccc(Cl)c3F)c[n+]1[O-])c1cc-2ncn1 (single isomer, unassigned) [Example 75]
2.2	5.47	COC(=O)Nc1ccc2c(c1)NC(=O)CCCCC(c1ccc(-c3c(F)ccc(Cl)c3F)c[n+]1[O-])c1cc-2cc[n+]1[O-] (stereo not shown) [Example 83, 9-(5-(3-chloro-2,6-difluorophenyl)-1-oxidopyridin-2-yl)-2^4-((methoxycarbonyl)amino)-4-oxo-3-aza-1(4,2)-pyridin-1-iuma-2(1,2)-benzenacyclononaphane 1^1-oxide]
1.7	7	Nc1ccc2c(c1)NC(=O)CCCCC(c1ccc(-c3c(F)ccc(Cl)c3F)c[n+]1[O-])c1cccc-2c1 (single isomer, unassigned) [Example 43-a, 2-(2^4-amino-4-oxo-3-aza-1(1,3),2(1,2)-dinenzenacyclononaphane-9-yl)-5-(3-chloro-2,6-difluorophenyl)pyridine 1-oxide]
0.53	1.89	COC(=O)Nc1ccc2c(c1)NC(=O)C(C)CCCC(c1ccc(-c3c(F)ccc(Cl)c3F)c[n+]1[O-])c1cccc-2c1 (single isomer, unassigned) [Example 50-a, 5-(3-chloro-2,6-difluorophenyl)-2-(2^4-((methoxycarbonyl)amino)-5-methyl-4-oxo-3-aza-1(1,3),2(1,2)-dinenzenacyclononaphane-9-yl)pyridine 1-oxide]
0.49	82.8	COC(=O)Nc1ccc2c(c1)NC(=O)CCCC[C@H](c1ccc(-c3cc(Cl)ccc3-n3cc(C)cn3)c[n+]1[O-])c1nc-2c(C)[nH]1 (single isomer, unassigned) [Example 141]
0.34	1.08	COC(=O)Nc1ccc2c(c1)NC(=O)CCCC[C@H](c1ccc(-c3c(F)ccc(Cl)c3F)c[n+]1[O-])c1cc-2ccn1 (single isomer, unassigned) [Example 73]
0.28	1.67	COC(=O)Nc1ccc2c(c1)NC(=O)CCCC[C@H](c1ccc(-c3cc(Cl)ccc3OC(F)F)c[n+]1[O-])c1cccc-2c1 (single isomer, unassigned) [Example 33]
0.24	119	O=C(C1CCCCC(c2ccc(-c3cc(Cl)ccc3-n3cnnn3)c[n+]2[O-])c2cccc(c2)-c2cc(F)ccc2N1)N1CCCC1 (single isomer, unassigned) [Example 79-b, 5-(5-Chloro-2-(1H-tetrazol-1-yl)phenyl)-2-(2^5-fluoro-4-(pyrrolidine-1-carbonyl)-3-aza-1(1,3),2(1,2)-dibenzenacyclononaphane-9-yl)pyridine 1-oxide]
0.18	1.02	Nc1ccc2c(c1)NC(=O)CCCCC(c1ccc(-c3c(F)ccc(Cl)c3F)c[n+]1[O-])c1nc-2c[nH]1 (single isomer, unassigned) [Example 108-a]
0.14	0.43	COC(=O)Nc1ccc2c(c1)NC(=O)CCCCC(c1ccc(-c3cc(Cl)ccc3OC(F)F)c[n+]1[O-])c1nc-2c[nH]1 (single isomer, unassigned) [Example 102-a, (Z)-5-(5-Chloro-2-(difluoromethoxy)phenyl)-2-(2^4-((methoxycarbonyl)amino)-4-oxo-1^1H-3-aza-1(4,2)-imidazola-2(1,2) -benzenacyclononaphane-9-yl)pyridine 1-oxide]
